# In publication PMC12387182, “Polyphenolic Profiling and Evaluation of Antioxidant, Antidiabetic, Anti-Alzheimer, and Antiglaucoma Activities of Allium kharputense and Anchusa azurea var. azurea” (Life, 2025):
# Legend:
# [1] = biological target: α-glycosidase (Saccharomyces cerevisiae, UniProt P53341); details: cited from earlier work
# [2] = ABTS scavenging activity
# Experimental: In addition, the ABTS^•^+ scavenging capacity of A. kharputense and A. azurea was determined. The mixture comprised 2 mM ABTS in water combined with 2.45 mM potassium persulfate (K2S2O8) to form ABTS^•+. This mixture was then kept for six hours at room temperature and in the dark. The study was performed by first diluting the solution in phosphate buffer (pH 7.4) to achieve an absorption of 0.800 ± 0.05 at 734 nm in a 1 mL cuvette. The solution was then equilibrated at 30 °C, the temperature at which all subsequent tests were conducted. Subsequently, 3 mL of each of A. kharputense and A. azurea in ethanol at various concentrations (10–30 µg/mL) were combined with 1 mL each of ABTS^•+ solution. Following a 30 min period of agitation, the absorbances were measured at 734 nm, and the radical scavenging activities were calculated for each concentration.
# [3] = DPPH scavenging activity
# Experimental: DPPH solution was prepared one day before the experimental measurement. The solution bottle was kept in the dark and stirred at 4 °C for 16 h. Aluminum foil was used to cover the bottle. Shortly after the preparation of 0.1 mM DPPH solution in ethanol, 0.5 mL of this solution was added to 2 mL A. kharputense and A. azurea extracts in ethanol at various concentrations (10–30 µg/mL). A. kharputense and A. azurea samples were vortexed and incubated at 30 °C for 30 min in the dark. The DPPH^• absorbances were measured and evaluated at 517 nm in comparison with the blank sample [40].
# [4] = cited from earlier work
# [5] = Cu^2+ reducing ability (CUPRAC); details: absorbance at 30 µg/mL
# Experimental: Equal volumes of 1.0 mM CuCl2, 7.5 mM neocuprine solutions, and 1.0 M ammonium acetate buffer (pH 6.5) were prepared according to the technique of Apak et al.. The plants were mixed with three different concentrations of the samples (15–45 µg/mL in ethanol), and the total reaction volume was adjusted to 2 mL. After the tubes were kept at room temperature for 30 min, the absorbance values at 450 nm were read spectrophotometrically.
# [6] = Fe^3+ reducing; details: absorbance at 30 µg/mL
# [7] = Fe^3+-TPTZ reducing (FRAP); details: absorbance at 30 µg/mL
# Experimental: The ferric reducing capacity (FRAP) of plasma is measured using the technique outlined. At low pH, a strong blue hue with a maximum absorption at 593 nm is produced when a ferric–tripyridyltriazine (Fe^3+-TPTZ) complex is reduced to the Fe^2+ form.
# α-glycosidase, sequence (P53341 whole entry): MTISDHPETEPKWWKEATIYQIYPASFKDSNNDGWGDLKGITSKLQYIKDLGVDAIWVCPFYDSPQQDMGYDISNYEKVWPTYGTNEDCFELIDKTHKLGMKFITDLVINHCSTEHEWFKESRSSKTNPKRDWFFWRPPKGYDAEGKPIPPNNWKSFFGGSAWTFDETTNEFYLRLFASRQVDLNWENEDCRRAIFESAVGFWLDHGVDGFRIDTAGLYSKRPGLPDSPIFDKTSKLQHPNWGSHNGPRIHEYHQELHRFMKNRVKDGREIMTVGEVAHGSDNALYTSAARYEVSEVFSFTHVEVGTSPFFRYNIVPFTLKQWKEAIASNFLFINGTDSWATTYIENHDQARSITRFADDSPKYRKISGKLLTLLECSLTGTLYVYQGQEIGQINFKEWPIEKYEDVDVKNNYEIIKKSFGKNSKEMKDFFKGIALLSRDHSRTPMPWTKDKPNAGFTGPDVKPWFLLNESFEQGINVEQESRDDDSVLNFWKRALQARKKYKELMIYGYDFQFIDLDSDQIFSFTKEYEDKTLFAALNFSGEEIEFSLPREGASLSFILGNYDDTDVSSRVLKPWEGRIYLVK
Compound,α-glycosidase inhibitory effect compared with Acarbose [1],ABTS^•+ Scavenging IC50 [2] [µg/mL],DPPH^• Scavenging IC50 [3] [µg/mL],DPPH radical scavenging activity (IC50) [4] [µg/mL],Cu^2+ Reducing A (450 nm) [5],Fe^3+ Reducing A (700 nm) [6],Fe^3+-TPTZ Reducing A (593 nm) [7]
O=c1c(O[C@@H]2O[C@H](CO)[C@@H](O)[C@H](O)[C@H]2O)c(-c2ccc(O)c(O)c2)oc2cc(O)cc(O)c12 [isoquercitrin],stronger than that of Acarbose,–,–,–,–,–,–
O=C1O[C@H]([C@@H](O)CO)C(O)=C1O [Ascorbic acid],–,28.79 ± 0.120,18.61 ± 0.120,3.6,–,–,–
"Cc1cc(C(C)(C)C)c(O)c(C(C)(C)C)c1 [BHT, butylated hydroxytoluene]",–,32.00 ± 0.100,13.34 ± 0.011,–,2.15 ± 0.068,2.08 ± 0.062,1.50 ± 0.080
"COc1ccc(O)c(C(C)(C)C)c1 [BHA, butylated hydroxyanisole]",–,38.59 ± 0.130,23.87 ± 0.097,–,1.58 ± 0.016,1.76 ± 0.026,1.75 ± 0.040
Cc1c(C)c2c(c(C)c1O)CCC(C)(C(=O)O)O2 (centres unmarked) [Trolox],–,53.26 ± 0.070,20.98 ± 0.016,–,1.04 ± 0.102,1.45 ± 0.005,0.84 ± 0.010
"Cc1c(C)c2c(c(C)c1O)CC[C@@](C)(CCC[C@H](C)CCC[C@H](C)CCCC(C)C)O2 [α-Tocopherol, α-tocopherol]",–,25.12 ± 0.070,30.29 ± 0.056,–,1.47 ± 0.044,0.94 ± 0.059,–
